Assay results from patent US7063946B2, “Methods, reagents, kits and apparatus for protein function analysis” (Meso Scale Technologies, LLC., priority 2001, dated 2006).

What was measured:
[1] = molecular target: T1, EGFR-pY1068 (SEQ ID NO: 7) (Homo sapiens, UniProt P00533); assay: Single-well 4-spot assay for multiple peptide-protein interactions; type: binding; settings: 4-spot plate
T1 construct: phosphotyrosine at Tyr1068 (chemical modification); purchased New England Peptide, Fitchburg Mass; host or cells: chemical synthesis
Text: (§1) Four phosphopeptides and their cognate binding proteins (Table 14) were selected for an integrated assay of multiple peptide-protein interaction in 4-spot Multi-Array plates. The IkBa-24pp peptide and its binding protein, βTRCP, are described in Example 10. […] These phosphotyrosine containing peptides are recognized by different adaptor or effecter proteins of the receptor tyrosine kinase signaling pathway.
(§2) These four peptides were coupled to BSA carrier protein through cystine residue. After purification on PD-10 gel filtration columns, the peptide-BSA conjugates were then deposited on the assay domains of a 4-spot multi-array IPR plate (i.e., in one of the four exposed regions of working electrode defined by the dielectric layer) with an automated micro-dispensing system (Bio-Dot Dispenser, Bio-Dot, Irvine Calif.). […] These plates are dried then used or stored under desiccated conditions. A few hours prior to usage the plates were rehydrated and blocked with 3% BSA in PBS. […] The in vitro translated and biotin-labeled proteins were then assayed in the 4-spot multi-array IPR plates under conditions described in Example 10.

[2] = molecular target: T2, EGFR-pY1148 (SEQ ID NO: 9) (Homo sapiens, UniProt P00533); assay: as above; type: binding; settings: 4-spot plate
T2 construct: phosphotyrosine at Tyr1148 (chemical modification); purchased New England Peptide, Fitchburg Mass; host or cells: chemical synthesis
Text: as §1, §2

[3] = molecular target: T3, Tek (Mus musculus, UniProt Q02858); assay: Kinase inhibitor profiling, autophosphorylation; type: biochemical
T3 construct: specificity data for proteins generated from a library of eighteen full-length clones; host or cells: rabbit reticulocyte lysate, TnT coupled in vitro transcription/translation (cell-free)
T3 sequence (Q02858 23-1122): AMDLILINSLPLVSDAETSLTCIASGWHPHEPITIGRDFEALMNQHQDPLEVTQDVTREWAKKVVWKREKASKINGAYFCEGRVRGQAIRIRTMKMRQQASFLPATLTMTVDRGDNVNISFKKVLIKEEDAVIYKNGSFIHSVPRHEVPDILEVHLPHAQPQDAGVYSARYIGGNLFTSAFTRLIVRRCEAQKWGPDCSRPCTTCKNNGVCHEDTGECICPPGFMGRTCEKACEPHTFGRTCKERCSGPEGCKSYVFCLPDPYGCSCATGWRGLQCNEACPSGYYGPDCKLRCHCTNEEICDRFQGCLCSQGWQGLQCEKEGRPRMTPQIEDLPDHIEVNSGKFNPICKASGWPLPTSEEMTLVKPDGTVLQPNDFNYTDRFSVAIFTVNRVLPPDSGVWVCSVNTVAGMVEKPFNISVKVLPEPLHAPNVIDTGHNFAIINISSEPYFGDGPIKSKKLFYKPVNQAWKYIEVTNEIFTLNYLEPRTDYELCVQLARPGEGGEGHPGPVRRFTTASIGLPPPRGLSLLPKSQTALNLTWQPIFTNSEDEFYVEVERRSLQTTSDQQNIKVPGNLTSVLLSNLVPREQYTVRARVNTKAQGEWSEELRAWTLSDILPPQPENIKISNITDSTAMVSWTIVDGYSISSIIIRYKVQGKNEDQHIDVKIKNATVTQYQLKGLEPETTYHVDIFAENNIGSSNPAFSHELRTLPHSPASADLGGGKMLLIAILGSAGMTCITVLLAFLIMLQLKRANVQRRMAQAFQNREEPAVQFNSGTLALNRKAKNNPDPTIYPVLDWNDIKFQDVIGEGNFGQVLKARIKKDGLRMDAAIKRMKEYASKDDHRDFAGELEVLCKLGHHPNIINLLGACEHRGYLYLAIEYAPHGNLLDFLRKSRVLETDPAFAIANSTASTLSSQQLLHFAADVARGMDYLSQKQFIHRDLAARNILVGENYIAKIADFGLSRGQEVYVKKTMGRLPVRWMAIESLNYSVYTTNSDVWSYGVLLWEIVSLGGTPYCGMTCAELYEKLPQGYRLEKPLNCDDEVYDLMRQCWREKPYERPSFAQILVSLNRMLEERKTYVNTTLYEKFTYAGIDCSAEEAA

Row | ECL signal, spot 3 EGFR-pY1068 [1] | ECL signal, spot 2 EGFR-pY1148 [2] | Compound | Inhibition specificity towards Autophosphorylation at 10X IC50, Tek [3]
1 | 24 | 36 | 3491843: IMAGE clone protein: βTRCP1 [compound 3491843] | –
2 | 126 | 278 | 3872466: IMAGE clone protein: mCBP [compound 3872466] | –
3 | – | – | COC(=O)c1ccc(NCc2cc(O)ccc2O)cc1 [AG-957] | M (medium inhibition (“M”=between 25 to 50% of the activity remaining))
4 | – | – | Erbstatin analog | L (low inhibition (“L”=between 50–75% of the activity remaining))
5 | – | – | Cc1cc2ncc(-c3ccc(O)c(O)c3)nc2cc1C [AG-1433] | H (high inhibition (“H”=less than 25% of the activity remaining))
6 | – | – | CC(C)(C)c1cc(C=C(C#N)C#N)cc(Br)c1O [AG-1024] | M (medium inhibition (“M”=between 25 to 50% of the activity remaining))
7 | – | – | COc1c(C=O)c(O)cc2c1C(=O)c1ccccc1C2=O [Damnacanthal] | H (high inhibition (“H”=less than 25% of the activity remaining))
